In one series the target is human mGluR5 (Homo sapiens, UniProt P41594). The experiment in a line: Cell-based functional Ca2+ mobilization assay (FDSS), potentiation of glutamate EC20 response, HEK293A cells transfected with human mGluR5a (H10H or H12H cell line). The note with it: H10H cell line expressing recombinant human mGluR5, in presence of glutamate EC20, ** = compound is an antagonist; for EC50: read-out: pEC50 (converted); for Emax: HEK293-A, % of maximal glutamate response. Here is the method:
Human embryonic kidney (HEK) cells transfected with rat mGluR5 were plated in clear bottom assay plates for assay in a Functional Drug Screening System (FDSS). In the alternative assay, HEK cells transfected with human mGluR5 were plated for assay in the FDSS. In some cases the HEK cells transfected with human mGluR5 are the H10H cell line. Alternatively, the HEK cells transfected with human mGluR5 are the H12H cell line. […] The cells were loaded with a Ca^2+-sensitive fluorescent dye (e.g., Fluo-4), and the plates were washed and placed in the FDSS instrument. After establishment of a fluorescence baseline for about three seconds, the compounds of the present invention were added to the cells, and the response in cells was measured. Five minutes later, an mGluR5 agonist (e.g., glutamate, 3,5-dihydroxyphenylglycine, or quisqualate) was added to the cells, and the response of the cells was measured.
The above described assay can be operated in two modes. In the first mode, a range of concentrations of the present compounds were added to cells, followed by a single fixed concentration of agonist. If a compound acted as a potentiator, an EC50 value for potentiation and a maximum extent of potentiation by the compound at this concentration of agonist was determined by non-linear curve fitting. In the second mode, several fixed concentrations of the present compounds were added to various wells on a plate, followed by a range of concentrations of agonist for each concentration of present compound; the EC50 values for the agonist at each concentration of compound were determined by non-linear curve fitting. A decrease in the EC50 value of the agonist with increasing concentrations of the present compounds (a leftward shift of the agonist concentration-response curve) is an indication of the degree of mGluR5 potentiation at a given concentration of the present compound. An increase in the EC50 value of the agonist with increasing concentrations of the present compounds (a rightward shift of the agonist concentration-response curve) is an indication of the degree of mGluR5 antagonism at a given concentration of the present compound. The second mode also indicates whether the present compounds also affect the maximum response to mGluR5 to agonists.
Human mGluR5a cDNA in pCMV6-XL6 mammalian expression plasmid was purchased from OriGene Technologies, Inc. (catalogue number SC326357) and subcloned into pcDNA3.1(−). Human embryonic kidney (HEK)293A cells were then transfected with human mGluR5a pcDNA3.1(−) using LipofectAmine2000 (Invitrogen) and monoclones were selected and tested for functional response using a Ca^2+ mobilization assay. Monoclones were named for the species (“H” for human) plus the location on the plate (e.g. “10H”).
HEK cells transfected with the human mGluR5a receptor (H10H or H12H cell line) were plated at 15,000 cells/well in clear-bottomed poly-D-lysine-coated assay plates (BD Falcon) in glutamate-glutamine-free growth medium and incubated overnight at 37° C. and 5% CO2. Cell-lines used were either the H10H or H12H cell-lines expressing the human mGluR5 receptor. The following day, the growth medium was removed and the cells were washed with assay buffer containing 1× Hank's balanced salt solution (Invitrogen, Carlsbad, Calif.), 20 mM HEPES, 2.5 mM probenecid, pH 7.4 and left with 20 μL of this reagent. Following this step, the cells were loaded with calcium indicator dye, fluo-4 AM, to a final concentration of 2 μM and incubated for 40-45 min at 37° C. The dye solution was removed and replaced with assay buffer. Cell plates were held for 10-15 min at room temperature and were then loaded into the Functional Drug Screening System 6000 (FDSS 6000, Hamamatsu, Japan).
After establishment of a fluorescence baseline for about 3 seconds, the compounds of the present invention were added to the cells, and the response in cells was measured.
Background: A change in cytosolic calcium serves as a functional read-out for many receptors and channels.

As a reminder, the melting point is the temperature, or range, at which the solid turns liquid. Broadly, the Emax is the maximal effect, on the per cent scale that the assay sets.

Sequence of human mGluR5 (P41594 21-1180 isoform P41594-2 limits assumed): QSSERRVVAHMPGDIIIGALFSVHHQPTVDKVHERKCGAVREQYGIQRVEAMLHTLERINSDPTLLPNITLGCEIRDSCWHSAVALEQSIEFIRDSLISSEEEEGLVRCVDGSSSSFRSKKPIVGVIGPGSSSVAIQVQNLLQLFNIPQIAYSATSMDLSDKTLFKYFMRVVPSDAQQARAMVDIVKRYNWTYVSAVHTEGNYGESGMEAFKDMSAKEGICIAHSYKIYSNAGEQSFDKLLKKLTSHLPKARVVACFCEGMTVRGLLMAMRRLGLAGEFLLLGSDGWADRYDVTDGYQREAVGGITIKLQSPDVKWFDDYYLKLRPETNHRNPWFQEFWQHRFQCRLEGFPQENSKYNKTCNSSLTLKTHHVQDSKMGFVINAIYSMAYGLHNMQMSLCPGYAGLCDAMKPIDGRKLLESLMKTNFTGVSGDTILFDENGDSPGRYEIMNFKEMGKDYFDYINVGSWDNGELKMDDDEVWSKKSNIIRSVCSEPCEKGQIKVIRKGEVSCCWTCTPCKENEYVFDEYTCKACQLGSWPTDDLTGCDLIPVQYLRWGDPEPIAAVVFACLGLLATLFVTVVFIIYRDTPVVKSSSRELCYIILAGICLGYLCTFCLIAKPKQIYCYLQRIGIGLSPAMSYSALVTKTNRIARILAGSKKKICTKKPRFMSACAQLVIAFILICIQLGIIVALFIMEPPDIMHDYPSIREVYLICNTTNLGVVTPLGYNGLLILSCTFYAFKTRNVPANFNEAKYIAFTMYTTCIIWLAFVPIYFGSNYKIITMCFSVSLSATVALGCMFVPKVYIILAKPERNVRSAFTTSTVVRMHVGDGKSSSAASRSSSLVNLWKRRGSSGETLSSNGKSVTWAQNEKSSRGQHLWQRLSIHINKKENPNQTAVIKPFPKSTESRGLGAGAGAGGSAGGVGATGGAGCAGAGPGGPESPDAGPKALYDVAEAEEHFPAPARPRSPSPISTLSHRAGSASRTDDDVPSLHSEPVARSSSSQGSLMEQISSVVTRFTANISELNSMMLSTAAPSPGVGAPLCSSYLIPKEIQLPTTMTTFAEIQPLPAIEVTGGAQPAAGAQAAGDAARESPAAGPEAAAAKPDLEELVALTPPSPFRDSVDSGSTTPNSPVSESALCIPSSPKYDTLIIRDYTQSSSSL

In turn, `O=C(c1cccc(F)c1)N1CCn2nc(OCc3ccccc3)cc2C1` [Example B2, 2-(benzyloxy)-5-[(3-fluorophenyl)carbonyl]-4,5,6,7-tetrahydropyrazolo[1,5-a]pyrazine] returned a melting point of 120.8 °C. Moreover, at human mGluR5, the EC50 was 0.251 µM and the Emax worked out at 46%.
In turn, `O=C(c1cccc(Cl)c1)N1CCn2nc(OCc3ccc(F)cc3)cc2C1` [Example B111] returned a melting point of 125.2 °C. In addition, on human mGluR5, the EC50 was 0.38 µM and the Emax was 49%.
Compound `N#Cc1ccc(COc2cc3n(n2)CCN(C(=O)c2ccccc2)C3)cc1` [Example B110] showed a melting point of 155.6 °C. Moreover, at human mGluR5, the EC50 was over 30.2 µM and the Emax was found to be 30%.
The compound `O=C(c1cc(F)ccc1F)N1CCn2nc(OCc3ccccc3)cc2C1` [Example B114] showed a melting point of 123.7 °C. On human mGluR5, the EC50 was 0.417 µM and the Emax was 72%.
Take `O=C(c1cc(F)cc(F)c1)N1CCn2nc(OCc3ccccc3F)cc2C1` [Example B132]: the melting point was determined as 118.1 °C. In addition, at human mGluR5, the EC50 was 0.224 µM and the Emax stood at 42%.
The matching figures for `O=C(c1ccc(F)cc1)N1CCCn2nc(OCc3ccncc3)cc2C1` [Example B89]: over 300 °C, over 10 µM and 40%.
The like results for `O=C(c1cc(F)cc(F)c1)N1CCn2nc(OCc3ccccc3)cc2C1` [Example B104] were, in that order, 165.2 °C, 0.138 µM and 44.5%.
Turning to `O=C(c1ccc(F)cc1)N1CCn2nc(OCc3ccccn3)cc2C1` [Example B18], the melting point was 138.1 °C. At human mGluR5, the EC50 was over 30.2 µM and the Emax is 22%.
The compound `O=C(c1cccc(F)c1F)N1CCn2nc(OCc3ccccc3)cc2C1` [Example B115] came in with a melting point of 122.7 °C. Besides, on human mGluR5, the EC50 was 0.537 µM and the Emax amounted to 40%.
Take `O=C(c1ncccc1Cl)N1CCn2nc(OCc3ccccc3)cc2C1` [Example B29]: the melting point is 135.1 °C. On human mGluR5, the EC50 is over 30.2 µM and the Emax came to 27%.
In the case of `O=C(c1ccc(F)cc1)N1CCn2nc(OCc3cccc(F)c3)cc2C1` [Example B10], the melting point was over 300 °C. Besides, on human mGluR5, the EC50 is 0.0891 µM and the Emax worked out at 62%.
The compound `O=C(c1cc(F)cc(F)c1)N1CCn2nc(OCc3cccc(F)c3)cc2C1` [Example B94] returned a melting point of 154.7 °C. For the same compound, at human mGluR5, the EC50 was 0.0617 µM and the maximal response (Emax) worked out at 25%.
On to `Cc1cc(COc2cc3n(n2)CCN(C(=O)c2ccc(F)cc2)C3)ccn1` [Example B4, 5-[(4-fluorophenyl)carbonyl]-2-[(2-methylpyridin-4-yl)methoxy]-4,5,6,7-tetrahydropyrazolo[1,5-a]pyrazine], for which the melting point came to 103.4 °C. Also, on human mGluR5, the EC50 is over 10 µM and the Emax was 26%.
Take `COc1cccc(COc2cc3n(n2)CCN(C(=O)c2ccc(F)cc2)C3)c1` [Example B16]: the melting point was 120.8 °C. Besides, at human mGluR5, the EC50 was 1.41 µM and the maximum response (Emax) was 49%.
Turning to `Cc1ccc(COc2cc3n(n2)CCN(C(=O)c2ccc(F)cc2)C3)cc1` [Example B12], the melting point was determined as 156.9 °C. For the same compound, at human mGluR5, the EC50 is over 30.2 µM and the Emax was determined as 28%.
`O=C(c1ccc(F)cc1F)N1CCn2nc(OCc3ccccc3)cc2C1` [Example B102]: the melting point stood at 182.1 °C. Besides, at human mGluR5, the EC50 is 0.148 µM and the Emax stood at 76%.
`O=C(c1ccc(F)c(C(F)(F)F)c1)N1CCn2nc(OCc3ccccc3)cc2C1` [Example B109] gave a melting point of 135.3 °C. Further, the Emax at human mGluR5 is 58%.
As for `N#Cc1cccc(C(=O)N2CCn3nc(OCc4ccccc4)cc3C2)c1` [Example B5], the melting point worked out at 151.6 °C. At human mGluR5, the EC50 was 0.724 µM and the Emax came out at 42%.
Compound `Cc1ncc(C(=O)N2CCn3nc(OCc4ccccc4)cc3C2)cn1` [Example B83] yielded a melting point of 166.4 °C. On human mGluR5, the EC50 was over 30.2 µM and the Emax amounted to 27%.
For `Cc1ccc(C(=O)N2CCn3nc(OCc4ccccc4)cc3C2)cn1` [Example B33], the melting point was 104.6 °C. Moreover, on human mGluR5, the EC50 is 3.89 µM and the Emax was 44%.
As for `O=C(c1ccc(F)cc1)N1CCn2nc(OCc3ccccc3F)cc2C1` [Example B11], the melting point amounted to 135.2 °C. At human mGluR5, the EC50 is 0.234 µM and the Emax stood at 64%.
Turning to `O=C(c1cccc(Cl)c1)N1CCn2nc(OCc3cccc(F)c3)cc2C1` [Example B98], the melting point amounted to 117 °C. For the same compound, on human mGluR5, the EC50 is 0.112 µM and the Emax was found to be 66%.
`O=C(c1ccc(F)cc1)N1CCn2nc(OCc3ccc(F)cc3)cc2C1` [Example B9] returned a melting point of 165.4 °C. On human mGluR5, the EC50 was 0.479 µM and the Emax is 54%.
On to `Cc1ncccc1C(=O)N1CCn2nc(OCc3ccccc3)cc2C1` [Example B34], for which the melting point was 129.2 °C. Also, at human mGluR5, the EC50 was over 30.2 µM and the Emax was found to be 28%.
As for `COc1ccc(C(=O)N2CCn3nc(OCc4ccccc4)cc3C2)cn1` [Example B35], the melting point was 138.6 °C. In addition, on human mGluR5, the EC50 is over 30.2 µM and the Emax was determined as 27%.
Consider `N#Cc1cc(F)cc(C(=O)N2CCn3nc(OCc4cccc(F)c4)cc3C2)c1` [Example B101], for which the melting point worked out at 118.2 °C. Moreover, at human mGluR5, the EC50 was over 30.2 µM and the maximal response (Emax) came to 32%.
Consider `COc1cccc(C(=O)N2CCn3nc(OCc4ccccc4)cc3C2)n1` [Example B82], for which the melting point was 97.1 °C. At human mGluR5, the EC50 is over 30.2 µM and the Emax was determined as 9%.
`O=C(c1ccccc1)N1CCn2nc(OCc3ccc(F)cc3)cc2C1` [Example B97] gave a melting point of 131 °C. For the same compound, at human mGluR5, the EC50 is 0.331 µM and the Emax came out at 48%.
Turning to `Cc1ccccc1COc1cc2n(n1)CCN(C(=O)c1ccc(F)cc1)C2` [Example B14], the melting point was found to be 99.3 °C. Moreover, on human mGluR5, the EC50 is 2 µM and the Emax came out at 51%.

Values taken from patent publication US9029366B2, “Substituted bicyclic alkoxy pyrazole analogs as allosteric modulators of mGluR5 receptors” (Vanderbilt University, priority 2012, dated 2015).
